As usually defined, the IC50 is the concentration that gives 50% inhibition. As usually defined, the inhibition in vivo is the change of the read-out against control, counted positive when it falls.

30 compounds from ChEMBL document CHEMBL1777728, “Amino-caprolactam γ-secretase inhibitors showing potential for the treatment of Alzheimer's disease” (Bioorg Med Chem Lett, 2011) can be followed below.

A short description of series [1]: Inhibition of gamma-secretase-mediated APP cleavage assessed as amyloid beta40 level after 2 hrs by ELISA. (An ELISA detects its analyte on a solid surface through an enzyme-linked reagent.)
The nature of series [2]: Inhibition of gamma-secretase-mediated notch cleavage after 2 hrs by ELISA.
A short description of series [3]: Selectivity ratio of IC50 for gamma-secretase-mediated notch cleavage to IC50 gamma-secretase-mediated APP cleavage.
The next series relates to MDCK. Put plainly: Efflux ratio of permeability from basolateral to apical over apical to basolateral side in human MDR1 transfected MDCK cells at 5 uM after 120 mins by LC-MS/MS analysis. Type of series: ADME, cell-based, Canis lupus familiaris. As to conditions: dog, 2 h.
The subject of series [4] is Mus musculus. Put plainly: Neuroprotective activity in wild type FVB mouse brain assessed as reduction of amyloid beta x-40 level at 100 mg/kg, ip. Type of series: functional. As to conditions: route intraperitoneal.
Series [5] has as its system Mus musculus. Put plainly: Neuroprotective activity in P-gp KO (MDR1 ab-/-) mouse brain assessed as reduction of amyloid beta x-40 level at 100 mg/kg, ip. The series is classed as functional. Particulars: route intraperitoneal.

Consider `CCCNC(=O)c1ccc(CN([C@@H]2CCCCNC2=O)S(=O)(=O)c2ccc(Cl)cc2)cc1`, for which the IC50 is 45 nM in series [1] and 26 nM in series [2]. Further, the Ratio IC50 in series [3] was determined as 0.5.

As to `Cc1ccc(CN([C@@H]2CCCCNC2=O)S(=O)(=O)c2ccc(Cl)cc2)s1`, the IC50 in series [1] came out at 81 nM.

With `O=C1NCCCC[C@H]1N(CC1CCc2ccccc2O1)S(=O)(=O)c1ccc(Cl)cc1` (some centres not stated), the values for the half-inhibitory concentration (IC50) in series [1] and in series [2] were 131 nM and 196 nM, respectively. For the same compound, the Ratio IC50 in series [3] was found to be 1.

`O=C1NCCCC[C@H]1N(Cc1ccc2nsnc2c1)S(=O)(=O)c1ccc(Cl)cc1`: the IC50 in series [1] was 13 nM; in series [2], 39 nM. Also, the Ratio IC50 in series [3] was determined as 3. The Ratio with MDCK amounted to 2.

Turning to `O=C(Nc1ccccc1)c1ccc(CN([C@@H]2CCCCNC2=O)S(=O)(=O)c2ccc(Cl)cc2)cc1`, the IC50 in series [1] is 76 nM; in series [2], 91 nM. For the same compound, the Ratio IC50 in series [3] is 1.

Consider `O=C1NCCCC[C@H]1N(Cc1ccc2snnc2c1)S(=O)(=O)c1ccc(Cl)cc1`, for which the IC50 in series [1] was determined as 8 nM; in series [2], 25 nM. Besides, the Ratio IC50 in series [3] worked out at 3. For the same compound, the Ratio with MDCK is 2. Besides, the inhibition in vivo at 100 mg/kg in the series with Mus musculus [4] turned out to be 32%; with Mus musculus [5], 60%.

Consider `Cc1ccc(CN([C@@H]2CCCCNC2=O)S(=O)(=O)c2ccc(Cl)cc2)o1`, for which the IC50 in series [1] stood at 432 nM; in series [2], 601 nM. In addition, the Ratio IC50 in series [3] stood at 1.

Turning to `O=C1NCCCC[C@H]1N(Cc1ccc2ncccc2c1)S(=O)(=O)c1ccc(Cl)cc1`, the IC50 in series [1] was 6 nM; in series [2] it was 4 nM. Moreover, the Ratio IC50 in series [3] was 0.6. Besides, the Ratio in the series with MDCK is 1.8. Also, the inhibition in vivo at 100 mg/kg in the series on Mus musculus [4] amounted to 20%; with Mus musculus [5] it was 62%.

For `O=C1NCCCC[C@H]1N(Cc1cc2ccccc2o1)S(=O)(=O)c1ccc(Cl)cc1`, the IC50 in series [1] stood at 12 nM; in series [2] it was 30 nM. Also, the Ratio IC50 in series [3] is 2.

`O=C(NC1CCCC1)c1ccc(CN([C@@H]2CCCCNC2=O)S(=O)(=O)c2ccc(Cl)cc2)cc1`: the IC50 was 23 nM in series [1] and 14 nM in series [2]. Besides, the Ratio IC50 in series [3] is 0.6.

`O=C1NCCCC[C@H]1N(Cc1ccc2nccnc2c1)S(=O)(=O)c1ccc(Cl)cc1`: the IC50 came to 15 nM in series [1] and 28 nM in series [2]. The Ratio IC50 in series [3] is 2. For the same compound, the Ratio in the series with MDCK worked out at 1.8. Further, the figures for the inhibition in vivo at 100 mg/kg with Mus musculus [4] and in the series on Mus musculus [5] were 26% and 61%, respectively.

As to `COc1cc(CN(C2CCCCNC2=O)S(=O)(=O)c2ccc(Cl)cc2)ccc1OCCc1scnc1C` (configuration not stated), in series [1], the IC50 is 1700 nM.

As to `O=C1NCCCC[C@H]1N(Cc1cnc2ccccc2c1)S(=O)(=O)c1ccc(Cl)cc1`, the values for the IC50 in series [1] and in series [2] were 52 nM and 126 nM, respectively. Besides, the Ratio IC50 in series [3] was found to be 2.

On to `O=C1NCCCC[C@H]1N(Cc1cc2ccccc2s1)S(=O)(=O)c1ccc(Cl)cc1`, for which the half-inhibitory concentration (IC50) came out at 7 nM in series [1] and 46 nM in series [2]. Besides, in series [3], the Ratio IC50 stood at 6.

For the compound `O=C(NC1CC1)c1ccc(CN([C@@H]2CCCCNC2=O)S(=O)(=O)c2ccc(Cl)cc2)cc1`, the IC50 was 31 nM in series [1] and 65 nM in series [2]. For the same compound, the Ratio IC50 in series [3] was determined as 2.

In the case of `Cc1cccc(CN([C@@H]2CCCCNC2=O)S(=O)(=O)c2ccc(Cl)cc2)n1`, the values for the IC50 in series [1] and in series [2] were 5360 nM and 9320 nM, respectively. In addition, the Ratio IC50 in series [3] is 2.

Take `O=C(NC1CCC1)c1ccc(CN([C@@H]2CCCCNC2=O)S(=O)(=O)c2ccc(Cl)cc2)cc1`: the IC50 was 23 nM in series [1] and 49 nM in series [2]. Also, in series [3], the Ratio IC50 stood at 2.

Regarding `CC(C)(C)CNC(=O)c1ccc(CN([C@@H]2CCCCNC2=O)S(=O)(=O)c2ccc(Cl)cc2)cc1`, the IC50 stood at 30 nM in series [1] and 55 nM in series [2]. The Ratio IC50 in series [3] is 2.

Consider `O=C1NCCCC[C@H]1N(Cc1ccc2c(c1)OCCO2)S(=O)(=O)c1ccc(Cl)cc1`, for which the IC50 in series [1] came to 9 nM; in series [2], 152 nM. Further, the Ratio IC50 in series [3] stood at 17. For the same compound, the Ratio in the series on MDCK is on record as 2.7.

Take `COc1cc(CN([C@H]2CCCCNC2=O)S(=O)(=O)c2ccc(Cl)cc2)ccc1OCCc1scnc1C`: in series [1], the IC50 was found to be 2000 nM.

With `Cn1nnc2cc(CN([C@@H]3CCCCNC3=O)S(=O)(=O)c3ccc(Cl)cc3)ccc21`, the IC50 in series [1] came out at 12 nM.

Consider `O=C(NCc1ccccc1)c1ccc(CN([C@@H]2CCCCNC2=O)S(=O)(=O)c2ccc(Cl)cc2)cc1`, for which the IC50 in series [1] amounted to 9 nM; in series [2], 16 nM. Also, the Ratio IC50 in series [3] stood at 2.

For the compound `COC(=O)c1ccc(CN([C@@H]2CCCCNC2=O)S(=O)(=O)c2ccc(Cl)cc2)cc1`, the IC50 in series [1] was 3 nM.

As for `O=C1NCCCC[C@H]1N(Cc1cnc2ncccc2c1)S(=O)(=O)c1ccc(Cl)cc1`, the IC50 was found to be 290 nM in series [1] and 1050 nM in series [2]. Besides, in series [3], the Ratio IC50 turned out to be 4.

As for `O=C1NCCCC[C@H]1N(Cc1nccs1)S(=O)(=O)c1ccc(Cl)cc1`, the IC50 in series [1] and in series [2] was 1830 nM in each case. Further, the Ratio IC50 in series [3] was 1.

On to `CC(C)NC(=O)c1ccc(CN([C@@H]2CCCCNC2=O)S(=O)(=O)c2ccc(Cl)cc2)cc1`, for which the results for the IC50 in series [1] and in series [2] were 30 nM and 66 nM, respectively. The Ratio IC50 in series [3] stood at 2.

Take `COc1cc(CN([C@@H]2CCCCNC2=O)S(=O)(=O)c2ccc(Cl)cc2)ccc1OCCc1scnc1C`: in series [1], the IC50 is 170 nM.

For `Cn1c(CN([C@@H]2CCCCNC2=O)S(=O)(=O)c2ccc(Cl)cc2)cc2ccccc21`, the half-inhibitory concentration (IC50) in series [1] was 565 nM; in series [2] it was 2790 nM. The Ratio IC50 in series [3] is 5.

In the case of `O=C1NCCCC[C@H]1N(Cc1csnn1)S(=O)(=O)c1ccc(Cl)cc1`, the half-inhibitory concentration (IC50) in series [1] stood at 758 nM; in series [2], 2120 nM. Also, the Ratio IC50 in series [3] was 3.

Turning to `COc1ccc(CN([C@@H]2CCCCNC2=O)S(=O)(=O)c2ccc(Cl)cc2)cc1OC`, the IC50 in series [1] turned out to be 170 nM.
